Assay [1] concerns A549 cell lines (lung cancer cell lines). Kind of assay: Oxygen Consumption Rate (OCR) of cells, corrected for cell viability (Cyquant). The assay is classed as cell-based. The conditions noted are these: Homo sapiens, read-out: OCR IC50. How it is done:
The compounds synthesized by the methods disclosed in the Examples of the present invention have been measured on oxygen consumption rate and extracellular oxidation by the methods disclosed in the Test Examples below.
3×10^3 cells from A549 cell lines (purchased from ATCC-American Type Culture Collection), which are lung cancer cell lines, were placed on XF96 cell culture plates using RPMI1640 medium, and cultured at 37° C. in a 5% CO2 condition for 16 hours or more for attachment.
After 16 hours, the cells were treated with the drug at six different concentrations between 0 μM and 20 μM. After 24 hours, the existing medium was removed, and XF assay medium (15 mM D-Glucose, 15 mM sodium pyruvate, 4 mM L-Glutamine, pH 7.4) was added. The cells were retreated with the drug, and additionally cultured in Prep station at 37° C. in a non-CO2 condition for 1 hour. During the one-hour culture in the Prep station, a sensor cartridge was placed and calibrated for 20 minutes, and a plate with cells was placed to analyze the OCR. After the analysis was completed, XF96 plate was measured for cell viability using Cyquant assay, which measures the amount of intracellular DNA, in the following method. XF assay medium and the drug were removed, and the cells were placed in a cryogenic refrigerator (−80° C.) for at least 4 hours to be frozen. After the plate was made to be at room temperature, a solution where a lysis buffer and fluorescent GR dye were mixed was placed by 200 μL per well. After 20-minute reaction at room temperature, […] was measured between […] to calculate cell viability. A measured value of a well untreated with the drug was converted to 100% by reflecting cell viability to the OCR value. Concentration of a drug which inhibits the OCR value reflecting cell viability by 50% was calculated.

In the next assay the test system is SK-MEL-28 cells. Kind of assay: Inhibitory effect of cancer cell proliferation, MTT. The assay is classed as cell-based. The conditions noted are these: Homo sapiens. As to the method:
The compounds prepared in the above Examples were evaluated for the inhibitory effect of cancer cell proliferation according to the method described in the following Test Example.
SK-MEL-28 cells derived from human melanoma were used, and the concentration (cell growth inhibitory concentration, IC50) at which cell growth was inhibited to 50% was measured using MTT reagent (3-(4,5-dimethylthiazole-2-yl)-2,5-[…] bromide) to confirm the inhibitory effect of cancer cell proliferation of the drugs synthesized in Examples 1 to 84.
First, SK-MEL-28 cells were cultured in 96-well plates at a cell number of about 1,250 in RPMI-1640 medium containing 11.1 mM glucose and 10% calf blood serum or 0.75 mM glucose and 10% calf blood serum, and were cultured for 16 hours. […] After treatment of the compound, MTT was added to the culture medium to confirm living cells and further cultured for 2 hours. The resulting formazane crystal was dissolved using dimethyl sulfoxide, and the absorbance of the solution was measured at 555 nm. After culturing for 72 hours, the number of viable cells in the well plate treated with the compounds synthesized in the Examples relative to the number of cells cultured in the well plate without treatment of the compounds was expressed as cell viability (%) according to each treatment concentration. By using this, a cell viability curve graph was prepared, and the inhibitory effect of cancer cell proliferation was confirmed by calculating the concentration of the compound whose growth was inhibited to 50% (IC50).

Where [2] appears, read: SK-MEL-28, 72 h, read-out: SK-MEL-28 0.75 mM glucose Cell viability (IC50 μM).
[3] abbreviates: SK-MEL-28, 72 h, read-out: SK-MEL-28 11.1 mM glucose Cell viability (IC50 μM).
[4] abbreviates: A549 cells, 24 h drug treatment, OCR value reflecting cell viability.
Setting [5] is: SK-MEL-28, 0.75 mM glucose, 72 hours, MTT, read-out: SK-MEL-28 0.75 mM glucose Cell viability (IC50 μM).
The mark [6] stands for this setting: SK-MEL-28, 11.1 mM glucose, 72 hours, MTT, read-out: SK-MEL-28 11.1 mM glucose Cell viability (IC50 μM).

One may read the IC50 as the concentration needed to halve the response being measured.

Read-outs that look alike come from different tables or passages of the source.

Consider `Nc1cc[n+](Cc2ccc[se]2)nc1` [Example 75, 4-Amino-1-(selenophen-2-ylmethyl)pyridazin-1-ium chloride], for which the 50% inhibitory concentration (IC50) in assay [1] (A549, 24 h) turned out to be 18.8 µM; in the assay with SK-MEL-28 cells (setting [2]), 57.7 µM; in the assay with SK-MEL-28 cells (setting [3]), 239 µM.

With `c1c[n+](CC2CC2)ccc1N1CCC1` [Example 70, 4-(Azetidin-1-yl)-1-(cyclopropylmethyl)pyridinium chloride], the IC50 in assay [1] (setting [4]) worked out at 3.4 µM; in the assay with SK-MEL-28 cells (setting [5]), 9.4 µM; with SK-MEL-28 cells (setting [6]) it was 49.5 µM.

Regarding `CNc1cc[n+](CC2CC2)cc1` [Example 41, 1-(Cyclopropylmethyl)-4-(methylamino)pyridinium chloride], the figures for the IC50 (in assay [1] (setting [4]); in the assay with SK-MEL-28 cells (setting [5]); with SK-MEL-28 cells (setting [6])) were 2.7 µM, 35.1 µM and 234 µM, respectively.

As to `Nc1cc[n+](Cc2ccccc2)c(F)c1` [Example 21, 4-Amino-1-benzyl-2-fluoropyridinium chloride], the 50% inhibitory concentration (IC50) in assay [1] (setting [4]) was 0.9 µM; in the assay with SK-MEL-28 cells (setting [5]), 12.5 µM; in the assay with SK-MEL-28 cells (setting [6]) it was 27.4 µM.

Turning to `c1c[n+](CC2CC2)cc2c1NCCO2` [Example 64, 6-(Cyclopropylmethyl)-2,3-dihydro-1H-pyrido[3,4-b][1,4]oxazin-6-ium chloride], the IC50 was 10.2 µM in assay [1] (setting [4]), 21 µM in the assay on SK-MEL-28 cells (setting [5]) and 187 µM in the assay on SK-MEL-28 cells (setting [6]).

As for `c1c[n+](CCC2CCCCC2)ccc1N1CCOCC1` [Example 53, 1-(2-Cyclohexylethyl)-4-morpholinopyridinium bromide], the figures for the half-inhibitory concentration (IC50) (in assay [1] (setting [4]); in the assay on SK-MEL-28 cells (setting [5]); with SK-MEL-28 cells (setting [6])) were 0.5 µM, 8.7 µM and 76.4 µM, respectively.

As to `c1c[n+](CC2CC2)ccc1N1CCCC1` [Example 56, 1-(Cyclopropylmethyl)-4-(pyrrolidin-1-yl)pyridinium chloride], the IC50 in assay [1] (setting [4]) came to 0.8 µM; in the assay on SK-MEL-28 cells (setting [5]), 4.4 µM; with SK-MEL-28 cells (setting [6]) it was 118 µM.

For `Nc1cc[n+](CCc2ccccc2)c2ccccc12` [Example 16, 4-Amino-1-phenethylquinolinium iodide], the IC50 in assay [1] (setting [4]) came to 1.5 µM; in the assay with SK-MEL-28 cells (setting [5]) it was 8 µM; in the assay with SK-MEL-28 cells (setting [6]), 28.2 µM.

With `Nc1cc[n+](CCC2CCCCC2)c(N)c1` [Example 40, 2,4-Diamino-1-(2-cyclohexylethyl)pyridinium bromide], the IC50 in assay [1] (setting [4]) stood at 0.9 µM; in the assay on SK-MEL-28 cells (setting [5]), 7.5 µM; with SK-MEL-28 cells (setting [6]), 30.6 µM.

For the compound `c1ccc(CC[n+]2cccc3c2CCCC3)cc1` [Example 22, 1-Phenethyl-5,6,7,8-tetrahydroquinolinium chloride], the IC50 was determined as 7.9 µM in assay [1] (setting [4]), 18.5 µM with SK-MEL-28 cells (setting [5]) and 193 µM in the assay on SK-MEL-28 cells (setting [6]).

In the case of `c1c[n+](CC2CCC2)ccc1N1CCCC1` [Example 58, 1-(Cyclobutylmethyl)-4-(pyrrolidin-1-yl)pyridinium chloride], the figures for the IC50 (in assay [1] (setting [4]); in the assay with SK-MEL-28 cells (setting [5]); in the assay with SK-MEL-28 cells (setting [6])) were 2.5 µM, 3 µM and 93.9 µM, respectively.

For the compound `Nc1cc[n+](CC2CCC2)cc1` [Example 47, 4-Amino-1-(cyclobutylmethyl)pyridinium bromide], the IC50 in assay [1] (setting [4]) was 5 µM; in the assay on SK-MEL-28 cells (setting [5]), 20.3 µM; in the assay with SK-MEL-28 cells (setting [6]), 167 µM.

Consider `CNc1cc[n+](Cc2ccc(Cl)c(Cl)c2)cc1` [Example 37, 1-(3,4-Dichlorobenzyl)-4-(methylamino)pyridinium chloride], for which the IC50 in assay [1] (setting [4]) was determined as 1.1 µM; in the assay with SK-MEL-28 cells (setting [5]), 1.5 µM; with SK-MEL-28 cells (setting [6]), 10.8 µM.

For the compound `Nc1cc[n+](CCc2ccccc2)cc1` [Example 1, 4-Amino-1-phenethylpyridinium chloride], the IC50 in assay [1] (A549, 24 h) was 1.1 µM; in the assay with SK-MEL-28 cells (setting [2]), 17.9 µM; in the assay with SK-MEL-28 cells (setting [3]) it was 163 µM.

For the compound `c1c[n+](CC2CC2)cc2c1NCCC2` [Example 63, 6-(Cyclopropylmethyl)-1,2,3,4-tetrahydro-1,6-naphthyridin-6-ium chloride], the IC50 was found to be 7.1 µM in assay [1] (setting [4]), 20.4 µM in the assay with SK-MEL-28 cells (setting [5]) and 208 µM with SK-MEL-28 cells (setting [6]).

Consider `c1ccc(CC[n+]2ccsc2)cc1` [Example 13, 3-Phenethylthiazol-3-ium iodide], for which the values for the IC50 (in assay [1] (setting [4]); in the assay with SK-MEL-28 cells (setting [5]); with SK-MEL-28 cells (setting [6])) were 16.5 µM, 129 µM and 320 µM, respectively.

As for `Cc1c[n+](CCc2ccccc2)ccc1N` [Example 44, 4-Amino-3-methyl-1-phenethylpyridinium chloride], the IC50 in assay [1] (setting [4]) was determined as 1.1 µM; with SK-MEL-28 cells (setting [5]) it was 15.2 µM; with SK-MEL-28 cells (setting [6]), 105 µM.

As for `CN(C)c1cc[n+](CCc2ccccc2)cc1` [Example 17, 4-(Dimethylamino)-1-phenethylpyridinium chloride], the figures for the IC50 (in assay [1] (setting [4]); in the assay on SK-MEL-28 cells (setting [5]); with SK-MEL-28 cells (setting [6])) were 4.2 µM, 6.9 µM and 75.4 µM, respectively.

With `Nc1cc[n+](CCc2ccccc2)c(N)c1` [Example 8, 2,4-Diamino-1-phenethylpyridinium bromide], the results for the IC50 (in assay [1] (setting [4]); with SK-MEL-28 cells (setting [5]); in the assay on SK-MEL-28 cells (setting [6])) were 1.2 µM, 4.7 µM and 75.1 µM, respectively.

`Nc1cc[n+](Cc2ccccc2)c(Cl)c1` [Example 30, 4-Amino-1-benzyl-2-chloropyridinium chloride]: the IC50 in assay [1] (setting [4]) stood at 0.9 µM; with SK-MEL-28 cells (setting [5]) it was 8.2 µM; in the assay on SK-MEL-28 cells (setting [6]), 23 µM.

In the case of `c1coc(C[n+]2ccc(N3CCCC3)cc2)c1` [Example 78, 1-(Furan-2-ylmethyl)-4-(pyrrolidin-1-yl)pyridinium chloride], the IC50 in assay [1] (setting [4]) was found to be 2.1 µM; with SK-MEL-28 cells (setting [5]), 3.55 µM; in the assay with SK-MEL-28 cells (setting [6]) it was 104 µM.

`Nc1cc[n+](CCc2ccccc2)c(Cl)c1` [Example 32, 4-Amino-2-chloro-1-phenethylpyridinium chloride]: the IC50 in assay [1] (setting [4]) is 0.3 µM; in the assay on SK-MEL-28 cells (setting [5]) it was 8.1 µM; in the assay with SK-MEL-28 cells (setting [6]) it was 38.8 µM.

On to `c1c[se]c(C[n+]2ccc(N3CCCC3)cc2)c1` [Example 72, 4-(Pyrrolidin-1-yl)-1-(selenophen-2-ylmethyl)pyridinium chloride], for which the IC50 in assay [1] (A549, 24 h) is 1 µM; in the assay with SK-MEL-28 cells (setting [2]), 2.6 µM; in the assay on SK-MEL-28 cells (setting [3]), 37.2 µM.

For `Nc1cc[n+](CCc2ccccc2Cl)c(N)c1` [Example 12, 2,4-Diamino-1-(2-chlorophenethyl)pyridinium bromide], the IC50 in assay [1] (setting [4]) stood at 0.8 µM; with SK-MEL-28 cells (setting [5]) it was 12.8 µM; in the assay with SK-MEL-28 cells (setting [6]) it was 55.5 µM.

On to `Nc1cc(N2CCC2)cc[n+]1Cc1ccsc1` [Example 81], for which the IC50 in assay [1] (setting [4]) came to 2.1 µM; in the assay on SK-MEL-28 cells (setting [5]) it was 4.15 µM; in the assay on SK-MEL-28 cells (setting [6]), 58.4 µM.

For the compound `Nc1cc[n+](CC(=O)c2ccc(OC(F)(F)F)cc2)cc1` [Example 25, 4-Amino-1-(2-oxo-2-(4-(trifluoromethoxy)phenyl)ethyl)pyridinium bromide], the IC50 in assay [1] (setting [4]) worked out at 1.6 µM; in the assay on SK-MEL-28 cells (setting [5]) it was 15.5 µM; in the assay with SK-MEL-28 cells (setting [6]) it was 40.6 µM.

Regarding `Nc1cc[n+](CCCc2ccccc2)cc1` [Example 23, 4-Amino-1-(3-phenylpropyl)pyridinium chloride], the IC50 in assay [1] (setting [4]) is 0.9 µM; with SK-MEL-28 cells (setting [5]) it was 5.4 µM; with SK-MEL-28 cells (setting [6]), 51.1 µM.

On to `Nc1cc[n+](Cc2cccs2)cc1` [Example 77, 4-Amino-1-(thiophen-2-ylmethyl)pyridinium chloride], for which the results for the IC50 (in assay [1] (setting [4]); with SK-MEL-28 cells (setting [5]); with SK-MEL-28 cells (setting [6])) were 2.4 µM, 15.8 µM and 106 µM, respectively.

For `c1ccc(C[n+]2ccc(N3CCOCC3)cc2)cc1` [Example 50, 1-Benzyl-4-morpholinopyridinium chloride], the IC50 came to 1 µM in assay [1] (setting [4]), 13.9 µM in the assay with SK-MEL-28 cells (setting [5]) and 208 µM in the assay with SK-MEL-28 cells (setting [6]).

As for `Nc1cc[n+](CCC2CCCCC2)c(F)c1` [Example 28, 4-Amino-1-(2-cyclohexylethyl)-2-fluoropyridinium bromide], the IC50 in assay [1] (setting [4]) came out at 0.4 µM; in the assay with SK-MEL-28 cells (setting [5]), 0.7 µM; in the assay on SK-MEL-28 cells (setting [6]) it was 3.8 µM.

For the origin of these results see patent US20170305861A1, “HETEROARYL COMPOUNDS COMPRISING NITROGEN AND USE THEREOF” (ImmunoMet Therapeutics, Inc, priority 2016, published 2017).
